Assay results: US20090176714A1, “METHOD OF REDUCING THE EFFECTS OF ABeta AND COMPOSITIONS THEREFORE” (priority 2004, published 2009)

What was measured:
tau [1] = assay: Tau phosphorylation (AT8, phospho-tau(Thr231) immunohistochemistry, immunoblot, electron microscopy) in hippocampal slices; type: cell-based, mouse
Method: Mice were killed with CO2 and immediately perfused through the heart with phosphate buffered saline (PBS). The right hemispheres were fixed in 4% paraformaldehyde (PFA) overnight, sunk in 30% sucrose, and frozen in OCT embedding medium. Hippocampal slices were fixed in 4% PFA for 20 minutes, incubated in 30% sucrose overnight, and frozen in OCT embedding medium. Frozen sections with a width of 10 μm were taken through the hippocampus. Post-mortem human tissue was formalin fixed, cut at 10 μm, and boiled for 10 minutes in a 10 mM Tris buffer, […] for antigen retrieval. IGF-2 and TTR were detected with a 1:200 dilution of the polyclonal antibody against IGF-2 (F-20) or TTR (C-20; Santa Cruz Biotechnology, Santa Cruz, Calif.). Phospho-BAD (Ser112; Cell Signaling, Beverly, Mass.), and BAD (Stressgen, Victoria, British Columbia) were detected with a 1:250 dilution of the respective polyclonal antibody. Phosphorylated tau was detected with the monoclonal AT8 antibody (1:200; Research Diagnostics, Flanders, N.J.) and anti-phospho-tau(Thr231) (1:500; Calbiochem, San Diego, Calif.). As a control pre-immune rabbit or mouse IgG (Vector Laboratories, Burlingame, Calif.) or goat IgG (Santa Cruz) was used in place of the primary antibody. A biotinylated anti-goat IgG, anti-rabbit IgG, or anti-mouse IgG was used as the secondary antibody. Finally, the Vectastain Elite ABC kit (Vector) and tyramide conjugated to either Alexa Fluor 488 or 568 (Molecular Probes, Eugene, Oreg.) were used to visualize the antibody staining. Anti-NeuN (1:250; Chemicon International, Temecula, Calif.) and 4G8 (1:250; Signet, Dedham, Mass.) together with an anti-mouse IgG secondary antibody conjugated to Alexa Fluor 488 were used to detect NeuN and Aβ. The DNA binding dyes ToPro3 (Molecular Probes) or Hoechst 33258 (Sigma, St. Louis, Mo.) were used to visualize nuclei. Sections were imaged using either the Bio-Rad Laser Scanning Confocal system or epifluorescence (Zeiss, Thornwood, N.Y.). Representative figures were obtained from 3 APPSw mice and 3 non-transgenic controls, 3 animals per treatment for hippocampal slices, or from 4 goat IgG and 4 anti-TTR antibody infused mice.
Following treatment with 50 μM Aβ or reverse Aβ for 24 hours, hippocampal slice cultures were fixed with a mixture of 2% PFA/2.5% glutaraldehyde in 0.1 M Sorensons phosphate buffer (pH 7.4) for 1 hour and then post fixed for 1 hour in 2% osmium tetroxide in the same buffer. The slices were then dehydrated in an ethanol series and embedded in Epon epoxy resin. Ultrathin sections were cut on a Reichert-Jung microtome, placed on copper grids, and stained with routine concentrations of uranyl acetate and lead citrate. Micrographs were taken with a Philips CM120 electron microscope. […]

tau [2] = assay: Tau phosphorylation in human cortical slices (AT8, phospho-tau(Thr231), electron microscopy); type: cell-based
Method: β-amyloid1-42 and reverse Aβ (Aβ42-1) were obtained from BACHEM (Torrance, Calif.). These peptides were dissolved in 0.1% NH3OH at 222 μM. For treatments, Aβ or reverse Aβ was aggregated at 50 μM in Neurobasal media with B-27 supplement and 0.5 mM glutamine at 37° C. for 24 hours. […] Human TTR (Calbiochem) was added to slices together with the Aβ treatment at final concentrations of 0.03, 0.3, and 3 μM TTR. sAPPα was obtained from Sigma (St. Louis, Mo.). Unless otherwise stated, all sAPPα treatments were performed at 1 nM 48 hours prior to the addition of Aβ. The 10 amino acid fragment of the carboxyl-terminal region of sAPPα (592-601 of APP695; SEVKMDAEFR was added according to the same protocol for sAPPα. Because a variable amount of tissue was obtained from each patient, not all treatments were performed on all patients.
Slices were fixed in 4% PFA for 20 minutes, incubated in 30% sucrose in phosphate buffered saline overnight, and frozen in OCT embedding medium. Frozen sections with a width of 10 μm were taken through each slice. Phosphorylated tau was detected with the monoclonal AT8 antibody (1:200; Research Diagnostics, Flanders, N.J.) and anti-phospho-tau(Thr231) (1:500; Calbiochem, San Diego, Calif.). As a control, pre-immune rabbit or mouse IgG (Vector Laboratories, Burlingame, Calif.) was used in place of the primary antibody. A biotinylated anti-rabbit IgG or anti-mouse IgG was used as the secondary antibody. The Vectastain Elite ABC kit (Vector) and tyramide conjugated to either Alexa Fluor 488 or 568 (Molecular Probes, Eugene, Oreg.) were used to visualize the antibody staining. Anti-NeuN (1:250; Chemicon International, Temecula, Calif.) together with an anti-mouse IgG secondary antibody conjugated to Alexa Fluor 647 was used to detect the neuronal marker NeuN. Sections were imaged using either the Bio-Rad Laser Scanning Confocal system or epifluorescence (Zeiss, Thornwood, N.Y.).

β-amyloid1-42 [Aβ]
AT8 (phosphorylated tau) staining of neurons in hippocampal neuronal fields (tau [1]; 25 μM or 50 μM): many neurons within the hippocampal neuronal fields were AT8 positive
Phospho-tau(Thr-231) staining of neurons (tau [1]; 25 μM or 50 μM Aβ): several neurons stained positively for phospho-tau(Thr-231)
Levels of phosphorylated tau, immunoblot for phospho-tau(Thr-231) (tau [1]; 50 μM): increased the levels of phosphorylated tau
Filaments within the cytoplasm of neurons, electron microscopy (tau [1]; 50 μM Aβ, 24 hours): presence of long, straight filaments
AT8 positive cells (tau [2]; 50 μM Aβ): several AT8 positive cells
Somatic phospho-tau(Thr231) in NeuN positive neurons (tau [2]; 50 μM Aβ): several NeuN positive neurons with high levels of somatic phospho-tau(Thr231)
Tangle-like structures, electron microscopy (tau [2]; 50 μM Aβ for 1 week): small number of neurons with tangle-like structures
